In patent US8785614B2, “Aberrantly methylated genes in pancreatic cancer” (The Johns Hopkins University, priority 2003, dated 2014):
Read-outs that look alike come from different tables or passages of the source.

Key:
[1] = system: MiaPaCa2 pancreatic cancer cell line; assay: Oligonucleotide microarray gene expression after TSA (1 μM, 24 h) vs mock; format: cell-based, human
Description: (§1) Mock-treated cells were cultured with the equivalent volume of PBS alone.
(§2) Total RNA was isolated from cultured cells using TRIZOL reagent (invitrogen, Carlsbad, Calif.) and purified using RNeasy Mini Kit (Qiagen, Valencia, Calif.). First- and second-stranded cDNA was synthesized from 10 μg of total RNA using 17-dT) primer (Genset Corp., La Jolla, Calif.) and Superscript Choice system (Invitrogen). Labeled cRNA was synthesized from the purified cDNA by in vitro transcription reaction using the BioArray High Yield RNA Transcript Labeling Kit (Enzo Diagnostics, Inc., Farmingdale, N.Y.) at 37° C. for 6 h. The cRNA was fragmented at 94° C. for 35 min. in a fragmentation buffer [40 mM Tris-acetate @ pH 8.1, 100 mM potassium acestate, and 30 mM magnesium acetate]. The fragmented cRNA was then hybridized to the Human Genome U133A chips (Affymetrix, Santa Clara, Calif.) with 18462 unique gene/EST transcripts at 45° C. for 16 h. The washing and staining procedure was performed in the Affymetrix Fluidics Station according to the manufacturer's instructions. The probes were then scanned using a laser scanner, and signal intensity for each transcript (background-subtracted and adjusted for noise) was calculated using Microarray Suite Software 5.0 (Affymetrix).
(§3) Fold change analysis of signal intensities obtained from oligonucleotide microarrays between the two treatment groups was performed using Data Mining software (Afrymetrix).

[2] = system: Panc1 pancreatic cancer cell line
Description: as §1, §2, §3
The global changes in gene expression proxies induced by 5Aza-dC in four pancreatic cancer cell lines (AsPCl, Hs766T, MiaPaCa2, and Panel) were determined using the Afrymetrix U133 oligonucleotide microarrays with 18462 probes sets (transcripts) covering over 13000 full-length sequences of known genes.

CC(/C=C/C(=O)NO)=C\[C@@H](C)C(=O)c1ccc(N(C)C)cc1 [TSA, trichostatin A]
Fold-change after TSA treatment ([1]; ADM, MiaPaCa2): 5.02 fold
Fold-change after TSA treatment ([1]; ANGPT1, MiaPaCa2): 1.75 fold
Fold-change after TSA treatment ([1]; AREG, MiaPaCa2): 3.97 fold
Fold-change after TSA treatment ([1]; ATF3, MiaPaCa2): 2.14 fold
Fold-change after TSA treatment ([1]; BIK, MiaPaCa2): 10.05 fold
Fold-change after TSA treatment ([1]; CACNA1G, MiaPaCa2): 4.61 fold
Fold-change after TSA treatment ([1]; CAPN5, MiaPaCa2): 5.18 fold
Fold-change after TSA treatment ([1]; CDH8, MiaPaCa2): −1.29 fold
Fold-change after TSA treatment ([1]; CDKN1C, MiaPaCa2): 13.22 fold
Fold-change after TSA treatment ([1]; CGR11, MiaPaCa2): 3.22 fold
Fold-change after TSA treatment ([1]; CHES1, MiaPaCa2): −1.03 fold
Fold-change after TSA treatment ([1]; CHFR, MiaPaCa2): 1.27 fold
Fold-change after TSA treatment ([1]; CLDN15, MiaPaCa2): 1.13 fold
Fold-change after TSA treatment ([1]; EDR1, MiaPaCa2): 5.91 fold
Fold-change after TSA treatment ([1]; EGR4, MiaPaCa2): 8.67 fold
Fold-change after TSA treatment ([1]; EREG, MiaPaCa2): 1.7 fold
Fold-change after TSA treatment ([1]; GADD45B, MiaPaCa2): 5.06 fold
Fold-change after TSA treatment ([1]; GAGE1, MiaPaCa2): 0.53 fold
Fold-change after TSA treatment ([1]; GAGE2, MiaPaCa2): 1.31 fold
Fold-change after TSA treatment ([1]; GAGE3, MiaPaCa2): −2.68 fold
Fold-change after TSA treatment ([1]; GAGE4, MiaPaCa2): 1.32 fold
Fold-change after TSA treatment ([1]; GAGE6, MiaPaCa2): −2.17 fold
Fold-change after TSA treatment ([1]; GAGE7B, MiaPaCa2): −1.76 fold
Fold-change after TSA treatment ([1]; H1 historic family, member 2 (BC002649), MiaPaCa2): 4.16 fold
Fold-change after TSA treatment ([1]; HEP27, MiaPaCa2): 26.21 fold
Fold-change after TSA treatment ([1]; HMOX1, MiaPaCa2): 5.25 fold
Fold-change after TSA treatment ([1]; HPSE, MiaPaCa2): 14.09 fold
Fold-change after TSA treatment ([1]; ID2, MiaPaCa2): 2.27 fold
Fold-change after TSA treatment ([1]; ING1, MiaPaCa2): 13.25 fold
Fold-change after TSA treatment ([1]; KLK12, MiaPaCa2): 2.91 fold
Fold-change after TSA treatment ([1]; MAGE1, MiaPaCa2): 5.17 fold
Fold-change after TSA treatment ([1]; MBD1, MiaPaCa2): 1.28 fold
Fold-change after TSA treatment ([1]; MMP1, MiaPaCa2): 1.01 fold
transcripts with marked induction ([1]; MiaPaCa2): 207 transcripts
transcripts with marked induction, share of transcripts analyzed ([1]; MiaPaCa2): 1.1%
Fold-change after TSA treatment ([1]; NGFR, MiaPaCa2): 13.46 fold
Fold-change after TSA treatment ([1]; NOTCH3, MiaPaCa2): −1.04 fold
Fold-change after TSA treatment ([1]; P-glycoprotein (mdr1), MiaPaCa2): 2.74 fold
Fold-change after TSA treatment ([1]; STC1, MiaPaCa2): 2.73 fold
Fold-change after TSA treatment ([1]; UCPH, MiaPaCa2): 6.39 fold
Fold-change after TSA treatment ([1]; ULBP2, MiaPaCa2): 4.09 fold
Fold-change after TSA treatment ([1]; WNT4, MiaPaCa2): 3.36 fold
Fold-change after TSA treatment ([1]; candidate tumor suppressor gene 21 protein (AF040708), MiaPaCa2): 1.15 fold
Fold-change after TSA treatment ([1]; connective tissue growth factor (M92934), MiaPaCa2): 4.28 fold
Fold-change after TSA treatment ([1]; hemoglobin, alpha 1 (HBAI), MiaPaCa2): 77.77 fold
Fold-change after TSA treatment ([1]; interleukin 8, MiaPaCa2): 1.36 fold
Fold-change after TSA treatment ([1]; period homolog 1 (PERI), MiaPaCa2): 1.28 fold
Fold-change after TSA treatment ([1]; prostate differentiation factor (AF003934), MiaPaCa2): 16.4 fold
Fold-change after TSA treatment ([1]; protease inhibitor 12 (neuroserpin) (SERPINU), MiaPaCa2): 44.44 fold
Fold-change after TSA treatment ([1]; synovial sarcoma, X breakpoint 1 (BC001003), MiaPaCa2): 1.5 fold
Fold-change after TSA treatment ([1]; tissue factor pathway inhibitor-2 (L27624), MiaPaCa2): −0.68 fold

Nc1ncn([C@H]2C[C@H](O)[C@@H](CO)O2)c(=O)n1 [5Aza-dC, 5 aza 2′ deoxycytidine]
Fold-change after 5Aza-dC treatment ([2]; ANGPT2, Panc1): 0.91 fold
Fold-change after 5Aza-dC treatment ([2]; BARD1, Panc1): −1.01 fold
Fold-change after 5Aza-dC treatment ([2]; BNIP3, Panc1): −1.07 fold
Fold-change after 5Aza-dC treatment ([2]; BST2, Panc1): −1.04 fold
Fold-change after 5Aza-dC treatment ([2]; CACNA1G, Panc1): 5.26 fold
Fold-change after 5Aza-dC treatment ([2]; CCNE2, Panc1): 1.52 fold
Fold-change after 5Aza-dC treatment ([2]; CDH3, Panc1): 2.31 fold
Fold-change after 5Aza-dC treatment ([2]; CDKN1A (p21), Panc1): 1.93 fold
Fold-change after 5Aza-dC treatment ([2]; CDKN1C, Panc1): 3.77 fold
Fold-change after 5Aza-dC treatment ([2]; CLDN5, Panc1): 1.88 fold
Fold-change after 5Aza-dC treatment ([2]; CSF1, Panc1): −1.91 fold
Fold-change after 5Aza-dC treatment ([2]; FOXE1, Panc1): 1.7 fold
Fold-change after 5Aza-dC treatment ([2]; GAGE1, Panc1): 0.46 fold
Fold-change after 5Aza-dC treatment ([2]; GAGE3, Panc1): 9.78 fold
Fold-change after 5Aza-dC treatment ([2]; GAGE4, Panc1): 35.44 fold
Fold-change after 5Aza-dC treatment ([2]; GAGE6, Panc1): 35.5 fold
Fold-change after 5Aza-dC treatment ([2]; GAGE7, Panc1): 36.1 fold
Fold-change after 5Aza-dC treatment ([2]; HOXA1, Panc1): 1.26 fold
Fold-change after 5Aza-dC treatment ([2]; IGF2, Panc1): 9.41 fold
Fold-change after 5Aza-dC treatment ([2]; IL1R1, Panc1): 1.37 fold
Fold-change after 5Aza-dC treatment ([2]; ISG20, Panc1): −0.84 fold
Fold-change after 5Aza-dC treatment ([2]; JPH3, Panc1): −4.18 fold
Fold-change after 5Aza-dC treatment ([2]; KLK10, Panc1): −1.05 fold
Fold-change after 5Aza-dC treatment ([2]; LDOC1, Panc1): 9.19 fold
Fold-change after 5Aza-dC treatment ([2]; LHX1, Panc1): 1.79 fold
Fold-change after 5Aza-dC treatment ([2]; MAGE1, Panc1): 7.32 fold
Fold-change after 5Aza-dC treatment ([2]; MATN1, Panc1): 3.61 fold
Fold-change after 5Aza-dC treatment ([2]; NEFH, Panc1): 4.59 fold
Fold-change after 5Aza-dC treatment ([2]; NPTX2, Panc1): 18.94 fold
Fold-change after 5Aza-dC treatment ([2]; PAX6, Panc1): 4.45 fold
Fold-change after 5Aza-dC treatment ([2]; PDYN, Panc1): 4.84 fold
Fold-change after 5Aza-dC treatment ([2]; PLAT, Panc1): 2.13 fold
Fold-change after 5Aza-dC treatment ([2]; PLEK2, Panc1): 1.08 fold
transcripts with >5-fold increase, share of the 18462 transcripts analyzed ([2]; Panc1): 0.6%
transcripts with substantial increase (>5-fold) in signal intensities ([2]; Panc1, vs mock-treated): 116 transcripts
Fold-change after 5Aza-dC treatment ([2]; SARP2, Panc1): −1.47 fold
Fold-change after 5Aza-dC treatment ([2]; SMARCA1, Panc1): 1.01 fold
Fold-change after 5Aza-dC treatment ([2]; ST14, Panc1): 5.1 fold
Fold-change after 5Aza-dC treatment ([2]; TIMP3, Panc1): 1.1 fold
Fold-change after 5Aza-dC treatment ([2]; TJP2, Panc1): 1.49 fold
Fold-change after 5Aza-dC treatment ([2]; TNF, Panc1): 1.18 fold
Fold-change after 5Aza-dC treatment ([2]; UCHL1, Panc1): 2.37 fold
Fold-change after 5Aza-dC treatment ([2]; WNT7A, Panc1): 3.57 fold
Fold-change after 5Aza-dC treatment ([2]; XAGE-1, Panc1): 24.78 fold
Fold-change after 5Aza-dC treatment ([2]; granulocytemacrophage colony-stimulating factor (M11734), Panc1): 2.17 fold
Fold-change after 5Aza-dC treatment ([2]; interferon, alpha-inducible protein (NM_022873), Panc1): 1.2 fold
Fold-change after 5Aza-dC treatment ([2]; p53-induced protein (PIGII), Panc1): 1.04 fold
Fold-change after 5Aza-dC treatment ([2]; reprimo, Panc1): 1.03 fold
Fold-change after 5Aza-dC treatment ([2]; stratifin (14-3-3 sigma), Panc1): 1.21 fold
Fold-change after 5Aza-dC treatment ([2]; stromal antigen 3 (STAG5), Panc1): 6.84 fold
Fold-change after 5Aza-dC treatment ([2]; testin, Panc1): 1.57 fold
